Reference: patent US12258377B2 (Scancell Limited, priority 2012, dated 2025)
Square brackets hold non-standard residues; d marks the D form. Ends that are not written are not given here. Cit = NC(=O)NCCC[C@H](N)C(=O)O

Tests used:
splenocytes [1] = test: Ex vivo elispot assay on splenocytes of immunised HLA-DR4 transgenic mice; assay type: in vivo; details: for IFNg elispot response to citrullinated peptide over unmodified peptide or background control: citrullinated peptides 25 ug s.c. in CpG and MPLA, FIG. 34; for IL-10 elispot responses: against wild type and citrullinated peptides; for IFNγ elispot response to wild type peptide, mean / IFNγ elispot response to citrullinated peptide, mean: day 14 splenocytes; for IFNγ elispot response against vimentin 28-49 triple, double and single citrullinated peptides: peptide immunisation, FIG. 11
Experimental: (§1) C57BL/6 mice (Charles River, UK), HLA-DR4 mice (Taconic, USA), HHDII mice (Pasteur institute, France) and HHDII/DRI mice (Pasteur institute, France) were used, aged between 8 and 12 weeks, and cared for by the staff at Nottingham Trent University. All work was carried out under a Home Office project license. Peptides were dissolved in 10% Dimethylformamide to 1 mg/ml and then emulsified (a series of dilutions) with different adjuvants: CpG and MPLA 6 μg/mouse of each (Invivogen, UK), Incomplete Freund's […] (Sigma, UK), and GMCSF 10 μg/mouse (Peprotech, UK). Peptides (25 μg/mouse) were injected subcutaneously at the base of the tail. DNA (1 μg/mouse) was coated onto 1.0 μm gold particles (BioRad, Hemel Hempstead, UK) using the manufacturer's instructions and administered intradermally by genegun (BioRad). Homspera (10 nM/mouse) (PeptideSynthetics, UK) was injected intradermally with genegun immunisation. Mice were immunized at either day 0 for peptide immunisation or days, 0, 7, and 14 for peptide and genegun immunisation. Spleens were removed for analysis at day 14 for peptide and day 20 for peptide or genegun immunisation unless stated otherwise. 400 μg Anti-CD25 antibody (PC61) was administered i.p. in saline 3 days prior to the immunisation. 200 μg Anti-CTLA-4 antibody (UC 10-4F, 10-11) was administered i.p. in saline at day 7 and 14 with either genegun or peptide immunisation.
(§2) Elispot assays were performed using murine IFNγ, IL-17 and IL-10 capture and detection reagents according to the manufacturer's instructions (Mabtech, Sweden). In brief, anti-IFNγ, IL-17 and IL-10 antibodies were coated onto wells of 96-well Immobilin-P plate. Synthetic peptides (at a variety of concentrations) and 5×10^5 per well splenocytes were added to the wells of the plate in triplicate. Tumour target cells were added where relevant at 5×10^4/well in triplicate and plates incubated for 40 hrs at 37° C. After incubation, captured IFNγ, […], IL-17 and IL-10 were detected by biotinylated anti-IFNγ, IL-17 and IL-10 antibodies and developed with a strepatavidin alkaline phosphatase and chromogenic substrate. Spots were analysed and counted using an automated plate reader (Cellular Technologies Ltd). Functional avidity was calculated as the concentration mediating 50% maximal effector function using a graph of effector function versus peptide concentration.

PBMC = test: Proliferation assay of PBMC from cancer patients; assay type: cell-based, human; details: PBMC stimulated with 10 μg/ml peptide for 4, 7 and 11 days, 3H-thymidine
Experimental: PBMC were isolated from freshly drawn heparinised blood by Ficol-Hypaque (Sigma) gradient centrifugation. PBMC (1.5×10^6 cells/well) were stimulated with single peptides (final concentration 10 μg/ml) in RPMI containing 5% pooled autologous human serum, 2 mM glutamine, 20 mM HEPES and Penicillin-streptomycin (1%) in a final volume of 2 ml. Stimulation with purified protein derivative, PPD (final concentration 10 μg/ml) served as a positive control for the proliferative capacity of PBMC. As a negative control PBMC were incubated with medium alone. The PBMC were cultured at 37° C. in an atmosphere of 5% CO2 for 4, 7 and 11 days. To assess proliferation at these times points 100 μl in triplicate from each culture was aliquoted into a round bottom well of a 96 well plate and ^3H-thymidine added (0.0185 MBq/well) and incubated at 37° C. for a further 8 hours. The cultures were harvested onto unifilter plates and incorporation of ^3H-thymidine was determined by β-scintillation counting. The results were assessed by calculating the stimulation index (SI) as the ratio of the mean of counts per minute (cpm) of epitope-stimulated to the mean of unstimulated cultures. The proliferative assay was considered positive when SI >2.5.

splenocytes [2] = test: Ex vivo elispot assay on splenocytes of immunised C57B1 mice; assay type: in vivo, C57BL/6 mice; details: combination of 3 citrullinated peptides (3×10 μg) with CpG and MPLA; day 14; C57B1/6 mice
Experimental: as §1, §2

splenocytes [3] = test: Ex vivo elispot assay on splenocytes of immunised HLA-DR1 / HLA-A2/DR1 (HHDII/DR1) transgenic mice; assay type: in vivo
Experimental: as §1, §2

B16F1-DR4 cells = test: Tumour challenge with B16F1-DR4 cells; assay type: in vivo, HLA-DR4 transgenic mice; details: peptide 25 μg in CpG and MPLA s.c. or DNA via gene gun, days 4, 11, 18; versus unimmunised control
Experimental: For tumour challenge experiments mice were challenged with 2.5×10^4 B16 HHDII NYESO/TAP2 siβ2m 1F10 cells or B16 DR4 2E7 cells subcutaneously on the right flank 3 days prior to primary immunisation and then were immunised as above. Anti-IFNγ antibody (300 μg/dose), anti-IL-17 antibody (200 μg/dose) and anti-HLA-DR antibody (300 μg/dose) were administered i.p. in saline at days 2, 7, 11 and 14 post tumour implant. Anti-CD4 antibody (500 μg/dose) was administered i.p.in saline at days 2 and 8 post tumour implant. Tumour growth was monitored at 3-4 days intervals and mice were humanely euthanized once tumour reached ≥10 mm in diameter.

splenocytes [4] = test: Ex vivo elispot assay on splenocytes of immunised HLA-DR1 / HLA-A2/DR1 (HHDII/DR1) transgenic mice; assay type: in vivo; details: combination of 3 citrullinated peptides (3×10 μg) with CpG and MPLA; day 14; HLA-DR1 transgenic mice
[5] = 25 μg peptide with CpG and MPLA day 0, day 14
[6] = 25 μg peptide with CpG and MPLA day 0, day 14, peptide 5 μM
[7] = 25 μg peptide with CpG and MPLA day 0, peptide 5 μM
[8] = 25 μg in MPLA and CPG s.c. days 0, 7, 14, HLA-DR1 transgenic mice
[9] = 25 μg peptide with CpG and MPLA day 0, day 14, recall peptide not specified

## RKKLSELLRYYTSASGDEMVSL [HSP90 456-477]
Splenocytes [1]
  IFNg elispot response to citrullinated peptide over unmodified peptide or background control: significant responses

## LPNFSSLNLRETNLDSLPL [wild type vim 415-433 peptide]
PBMC
  patients showing a proliferative response (SI >2.5): 8/11
PBMC; listed as unmodified vim 415
  patients showing a proliferative response (SI >2.5): Six of eleven
Splenocytes [1]; 25 μg peptide in MPLA and CPG s.c., day 14, FIG. 30
  IL-10 response, mean: 580 spots/million splenocytes
Splenocytes [1]; [5]
  IL-10 elispot responses: No significant IL-10 responses
Splenocytes [1]; [6]
  IL-2 elispot response to citrullinated peptide, mean: weak
  IL-17 elispot response to wild type peptide, mean: failed to stimulate a significant IFNγ or IL-17 response
Splenocytes [1]; [7]
  IFNγ elispot response to wild type peptide, mean: failed to stimulate a significant IFNγ or IL-17 response

## YSCVGVFKNGRVEII [BiP 39-53]
Splenocytes [1]
  IFNg elispot response to citrullinated peptide over unmodified peptide or background control: significant responses

## SAVRLRSSVPGVR [wild type vim 65-77 peptide]
PBMC; listed as vim 65
  patients showing a proliferative response (SI >2.5): Four out of eight
PBMC; listed as vim 65-77
  patients showing a proliferative response (SI >2.5): 4/9
Splenocytes [1]; [6]
  IL-17 elispot response to citrullinated peptide, mean: weak
  IL-17 elispot response to wild type peptide, mean: weak
Splenocytes [1]; [7]
  IFNγ elispot response to citrullinated peptide, mean: weak
  IFNγ elispot response to wild type peptide, mean: weak

## KLATEYMSSARSLSSEEK [ING4 44-58]
Splenocytes [1]
  IFNg elispot response to citrullinated peptide over unmodified peptide or background control: significant responses

## EKLQEEMLQREEAENTLQS [Vimentin 19]
Splenocytes [2]
  IL-17 response, screening of citrullinated 20 mer peptides: ~400 spots/million splenocytes

## mouse vim 415 cit: murine vimentin 415-433 citrullinated peptide (LPTFSSLNL[Cit]ETNLESLPL; UniProt P20152 415-433, looked up, fragment)
Splenocytes [1]; 25 μg peptide day 0, PC61 three days before, IFNγ elispot day 14
  influence of natural Treg depletion (anti-CD25 mAb) on the response: no influence on the frequency or the avidity of the response

## VPAYFNDAQRQATKDA [BiP 172-186]
Splenocytes [1]
  IFNg elispot response to citrullinated peptide over unmodified peptide or background control: significant responses

## AQKKLKLVcitTSPEYGMP (AQKKLKLV[Cit]TSPEYGMP)
Splenocytes [3]; [8]
  IFNγ/IL-17 response to the citrullinated peptide, mean: 200 spots/million splenocytes
  IFNγ/IL-17 response to the wild type peptide: no response
Splenocytes [3]; IFNγ elispot, HLA-A2/DR1 mice
  response in presence of MHC class II blocking mab: blocked

## EAENTLQSFRQDVDNASLA [Vimentin 20]
Splenocytes [2]
  IL-17 response, screening of citrullinated 20 mer peptides: ~400 spots/million splenocytes

## Vim 28-49 only citrullinated at position 28: vimentin 28-49 peptide with citrulline only at position 28 ([Cit]SYVTTSTRTYSLGSALRPSTS; UniProt P08670 28-49, looked up, fragment)
Splenocytes [1]
  IFNγ elispot response against vimentin 28-49 triple, double and single citrullinated peptides: gave a response to the tri-citrullinated peptide and the Vim 45 citrullinated peptide

## RSYVTTSTRTYSLGSALRPSTS [wild type vim 28-49]
B16F1-DR4 cells
  anti-tumour response / survival: anti-tumour response that almost reached significance
PBMC
  patients showing a proliferative response (SI >2.5): Two of eight
PBMC; listed as Wild type vim 28-49 peptide
  patients showing a proliferative response (SI >2.5): 2/11
Splenocytes [1]; [5]
  IL-10 elispot responses: No significant IL-10 responses
Splenocytes [1]; [9]
  IL-2 elispot responses: weak
  IL-17 elispot responses: weak
Splenocytes [1]; [7]
  IFNγ elispot response to citrullinated peptide, mean: 1,100 /million splenocytes
  IFNγ elispot response to wild type peptide, mean: 700 /million splenocytes

## RAPFDLFENRKKKNN [HSP90 346-360]
Splenocytes [1]
  IFNg elispot response to citrullinated peptide over unmodified peptide or background control: significant responses

## vim 28 and 36 citrullinated peptide: vimentin 28-49 peptide citrullinated at positions 28 and 36 ([Cit]SYVTTST[Cit]TYSLGSALRPSTS; UniProt P08670 28-49, looked up, fragment)
Splenocytes [1]
  IFNγ elispot response against vimentin 28-49 triple, double and single citrullinated peptides: responded to the triple

## RLRSSVPGVRLLQDSVDFS [Vimentin 10]
Splenocytes [4]
  IL-17 response, screening of citrullinated 20 mer peptides: 350 spots/million splenocytes

## AQKKLKLVRTSPEYGMP
Splenocytes [3]; HLA-DR1 transgenic mice
  immune response after immunisation: failed to stimulate any immune response
